Values after ≈ are worked out from the molar mass of the structure shown. Read-outs that look alike come from different tables or passages of the source.
Legend:
[1] = PK Simulation Analysis 1 by Superposition Method (Phoenix WinNonlin NPS); design: species or system human; details: Compound (1) 50 mg; 2.5 times the 20 mg prediction
From the text: The plasma concentration profile of Compound (2) on day 10 of repeated administration was predicted using the superposition method implemented in the Nonparametric Superposition (NPS) tool of the analysis software Phoenix WinNonlin, applying the single-dose results (Certara L.P.) (FIG. 4).

[2] = Repeated Administration Study 1: L-SEDDS 400 mg once daily for 10 days, plasma Compound (2); format: in vivo, human
Method: (§1) This clinical trial was a single-center, randomized, double-blind, placebo-controlled, single and multiple ascending dose study with the primary objective of evaluating the safety and tolerability of Compound (1) when orally administered to healthy adult males.
(§2) Screening tests were conducted within 28 to 3 days before administration of the investigational drug to confirm the eligibility of the subjects, and the subjects were hospitalized 2 days before administration. After hospitalization, tests were conducted from 2 days before administration to the day of administration to confirm that there were no problems with eligibility, and then Compound (1) or placebo was randomly assigned. The subjects in each cohort consisted of 8 people, of which 6 were assigned to Compound (1) and 2 were assigned to placebo, and they were administered the drug.
(§3) Day 8, when repeated administration was started, corresponds to administration day 1 (Day 1), and day 17 corresponds to administration day 10 (Day 10). […]
(§4) The plasma concentration of Compound (2) was measured using a validated measurement method. Specifically, plasma was separated from collected blood and processed, and then the plasma concentration was measured by an LC/MS/MS apparatus.
(§5) For twice-daily administration of C-SEDDS, blood was further collected at 13, 14, 14.5, and 16 hours later to quantify Compound (2).

[3] = target: T1, MAdCAM-1 binding of lymphocytes (CD3-positive CD4-positive cells) (Homo sapiens, UniProt P13612+P26010); assay: Ex vivo integrin inhibitory activity: MAdCAM-1 binding inhibition rate of lymphocytes in plasma (flow cytometry); format: cell-based; details: for IC90: CD4 positive
T1 construct: endogenous in cells; host or cells: CD3-positive CD4-positive lymphocytes in heparinized whole blood of dosed healthy adult males
T1 sequence (P13612 34-1032): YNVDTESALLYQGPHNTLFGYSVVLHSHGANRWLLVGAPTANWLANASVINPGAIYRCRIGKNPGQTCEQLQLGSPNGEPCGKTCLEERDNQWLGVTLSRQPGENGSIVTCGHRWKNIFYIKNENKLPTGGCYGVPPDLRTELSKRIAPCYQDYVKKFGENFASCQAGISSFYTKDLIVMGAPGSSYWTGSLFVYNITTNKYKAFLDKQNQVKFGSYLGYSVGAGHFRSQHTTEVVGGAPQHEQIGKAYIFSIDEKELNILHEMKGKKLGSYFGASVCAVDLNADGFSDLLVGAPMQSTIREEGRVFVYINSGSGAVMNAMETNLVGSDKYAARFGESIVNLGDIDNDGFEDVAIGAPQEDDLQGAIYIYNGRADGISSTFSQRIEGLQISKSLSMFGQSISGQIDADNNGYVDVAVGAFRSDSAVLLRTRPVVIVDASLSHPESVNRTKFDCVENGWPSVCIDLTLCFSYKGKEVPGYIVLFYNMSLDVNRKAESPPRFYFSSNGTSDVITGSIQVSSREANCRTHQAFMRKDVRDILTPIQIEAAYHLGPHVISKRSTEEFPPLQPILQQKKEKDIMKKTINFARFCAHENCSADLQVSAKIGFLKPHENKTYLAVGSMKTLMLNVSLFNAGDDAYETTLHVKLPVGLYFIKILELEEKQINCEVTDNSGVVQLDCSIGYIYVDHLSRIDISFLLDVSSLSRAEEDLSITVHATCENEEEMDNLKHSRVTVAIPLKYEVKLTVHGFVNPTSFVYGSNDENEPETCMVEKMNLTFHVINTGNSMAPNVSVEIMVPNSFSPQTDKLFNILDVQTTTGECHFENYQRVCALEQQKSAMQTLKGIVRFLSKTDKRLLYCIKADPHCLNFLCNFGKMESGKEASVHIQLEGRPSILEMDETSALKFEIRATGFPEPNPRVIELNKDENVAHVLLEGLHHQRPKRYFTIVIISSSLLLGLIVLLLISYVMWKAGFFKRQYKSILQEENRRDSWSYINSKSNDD
T1 sequence (P26010 20-798): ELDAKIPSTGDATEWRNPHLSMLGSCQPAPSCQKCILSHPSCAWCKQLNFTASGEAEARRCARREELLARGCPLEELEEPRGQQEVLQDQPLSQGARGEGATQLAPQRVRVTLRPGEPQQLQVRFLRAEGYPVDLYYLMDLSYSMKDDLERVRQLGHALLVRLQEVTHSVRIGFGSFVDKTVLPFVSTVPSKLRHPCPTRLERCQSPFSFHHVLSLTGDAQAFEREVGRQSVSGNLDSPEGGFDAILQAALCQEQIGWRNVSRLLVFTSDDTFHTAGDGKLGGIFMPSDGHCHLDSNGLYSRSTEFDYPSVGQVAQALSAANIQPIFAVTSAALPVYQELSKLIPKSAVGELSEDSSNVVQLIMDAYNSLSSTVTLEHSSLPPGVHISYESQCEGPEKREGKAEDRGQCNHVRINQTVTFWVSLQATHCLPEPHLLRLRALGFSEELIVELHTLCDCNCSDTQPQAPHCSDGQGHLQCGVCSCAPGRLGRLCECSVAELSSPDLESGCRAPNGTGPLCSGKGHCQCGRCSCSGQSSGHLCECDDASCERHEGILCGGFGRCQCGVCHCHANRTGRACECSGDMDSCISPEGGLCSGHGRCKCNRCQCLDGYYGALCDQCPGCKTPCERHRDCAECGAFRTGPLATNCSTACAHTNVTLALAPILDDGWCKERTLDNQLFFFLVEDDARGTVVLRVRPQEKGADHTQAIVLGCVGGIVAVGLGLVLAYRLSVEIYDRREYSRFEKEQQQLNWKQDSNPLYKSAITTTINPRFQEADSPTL
Method: [MAdCAM-1 Binding Inhibition Rate (PD) of Lymphocytes in Plasma and IC90, IC50]
The MAdCAM-1 binding rate of lymphocytes in plasma was measured using a validated measurement method using the obtained blood samples, and the MAdCAM-1 binding inhibition rate of lymphocytes in plasma was calculated using Excel. Specifically, 5 μL of an 80 mM MnCl2 solution was added to 90 μL of heparinized blood and incubated at room temperature for 10 minutes. A volume of 5 μL of 200 μg/mL recombinant human MAdCAM-1/Fc (R&D Systems) was added to make a total volume of 100 μL, and the mixture was incubated at room temperature for 30 minutes. Subsequently, 1900 μL of BD Phosflow Lyse/Fix Buffer 5× (BD Biosciences) was added, and hemolysis and fixation were performed at 37° C. for 10 minutes. After centrifugation for 5 minutes, the supernatant was removed, and 2000 μL of RPMI-1640 medium supplemented with 10% inactivated fetal bovine serum (hereinafter referred to as medium) was added. After centrifugation for 5 minutes, the supernatant was removed and washed. After washing again with the medium, 50 μL of Brilliant Stain Buffer (BD Biosciences), 1.25 μL of MAdCAM-1 FITC (Hycult Biotech), 5 μL of CD4 PE (BD Biosciences), 2.5 μL of CD45RO APC (UCHL1) (BioLegend), 5 μL of CD3 BV421 (SK7) (BioLegend), and 2.5 μL of CD45 BV510 (HI30) (BioLegend) were added, and the mixture was incubated for 30 minutes. After washing with Stain Buffer (BSA) (BD Biosciences), the percentage of MAdCAM-1-positive cells among CD3-positive CD4-positive cells was measured using flow cytometry.
The percentage of MAdCAM-1-positive cells among CD3-positive CD4-positive cells was calculated by subtracting each measured value from the measured value when MAdCAM-1/Fc was not added as a control. The percentage of MAdCAM-1-positive cells among CD3-positive CD4-positive cells before administration of Compound (1) or placebo was set as 0% inhibition, and the MAdCAM-1 binding inhibition rate at each blood collection time point was obtained. Furthermore, the concentration IC50 that causes 50% binding inhibition and the concentration IC90 that causes 90% binding inhibition were calculated.
The MAdCAM-1 binding inhibition rate (PD) of lymphocytes in plasma was evaluated using collected blood, and the correlation with the plasma concentration (PK) of Compound (2) was plotted (FIG. 5).

[4] = Phase 1 single-dose administration study: plasma concentration of Compound (2) by LC/MS/MS after oral Compound (1); format: in vivo, human; details: Compound (1) 200 mg C-SEDDS single oral dose
[5] = PK Simulation Analysis 2 by Superposition Method (200 mg twice daily); design: species or system human; details: Day 10 of repeated administration
Method: The plasma concentration of Compound (2) on day 10 of repeated administration at 200 mg twice daily (every 12 hours) was predicted using the superposition method implemented in the Nonparametric Superposition (NPS) tool of the analysis software Phoenix WinNonlin, applying the results of once-daily administration at 200 mg (Certara L.P.) (FIG. 6).

[6] = Repeated Administration Study 2: C-SEDDS 200 mg twice daily for 10 days, plasma Compound (2); format: in vivo, human
Method: as §1, §2, §3, §4, §5

estimated Cmax on the 10th day of repeated administration [1]: 3.63 ng/mL
increase of plasma concentration (trough value) after 24 hours, Day 10 of repeated vs single-dose administration ([2]; Compound (1) 400 mg L-SEDDS once daily): more than threefold
IC90 ([3]; ex vivo, blood of healthy adult males given Compound (1), read-out: IC90 (plasma concentration that causes 90% MAdCAM-1 binding inhibition)): 6.9 ng/mL (≈ 9.88 nM)
IC90 ([3]; read-out: IC90): 6.9 ng/mL (≈ 9.88 nM)
IC50 ([3]; ex vivo, blood of healthy adult males given Compound (1), read-out: IC50 (plasma concentration that causes 50% MAdCAM-1 binding inhibition) (converted)): 2.72 nM
correlation of plasma concentration (PK) with MAdCAM-1 binding inhibition rate (PD) ([3]; ex vivo, collected blood, FIG. 5): correlated
plasma concentration of Compound (2) ([4]; 0.5 h post-dose): Below quantitation limit
plasma concentration of Compound (2) ([4]; 1 h post-dose): Below quantitation limit
predicted trough value (200 mg twice daily) relative to measured trough value (400 mg once daily) [5]: about twice
increase of plasma concentration (trough value) 12 hours after the second dose on Day 10 of repeated vs single-dose administration ([6]; Compound (1) 200 mg C-SEDDS twice daily): about eightfold
Compound: Cc1cc(=O)n(-c2ccc(C[C@H](NC(=O)c3cc(F)c(NS(=O)(=O)c4ccc(NC(=O)C(C)(C)C)cc4)cc3F)C(=O)O)cn2)c(=O)n1C [Compound (2)]
trough concentration relative to IC90 ([2]; once-daily administration of L-SEDDS (Compound (1) 400 mg)): maintained above IC90 (6.9 mg/mL) from the second day of administration
trough concentration relative to IC90 ([6]; twice-daily administration of C-SEDDS (Compound (1) 200 mg)): maintained above IC90 (6.9 mg/mL) from the third day of administration

Source: patent US20260284086A1, “PHARMACEUTICAL COMPOSITION FOR TREATMENT OF INFLAMMATORY BOWEL DISEASE” (EA PHARMA CO., LTD., priority 2023, published 2026)
